Measurements reported in article PMC7417813, “Synthesis and Biological Evaluation of Thio-Derivatives of 2-Hydroxy-1,4-Naphthoquinone (Lawsone) as Novel Antiplatelet Agents” (Frontiers in Chemistry, 2020).
“Also recorded” adds a separate entry of the source. Like-named read-outs stand apart in the source and are kept apart here.

Legend:
[1] = test system: washed platelets; test: Lactate dehydrogenase (LDH)-based cytotoxicity assay on washed platelets; settings: for cytotoxicity on platelets by LDH leakage (in words): 100 μM, 10 min at 37°C; for Cytotoxic activity Mean (%) ± SD: LDH release as percentage of total enzyme activity (0.3% Triton X-100 lysis), 100 μM compound, 10 min, 37°C, washed platelets
Protocol: Platelets were obtained from citrated whole blood of healthy volunteers (two weeks drugs-free) with written informed consent, as previously described (Fuentes et al., [2014a]).
Washed platelets (200 × 10^9 platelets/L) were incubated for 10 min at 37°C with DMSO (vehicle) 0.2% or 100 μM of compounds. Then, platelets are centrifuged (800 × g for 8 min), and 50 μL aliquots of the resulting supernatant analyzed by the LDH assay (Cayman Chemical, USA).

[2] = test system: TRAP-6-stimulated platelets; test: Platelet aggregation induced by TRAP-6 (light transmission, lumi-aggregometer); assay type: cell-based, human; settings: platelet aggregation induced by TRAP-6 (5 μM), washed platelets pre-incubated 5 min at 37°C, read-out: IC50 (μM) ± SD TRAP-6 (5 μM)
Protocol: (§1) Platelet aggregation was evaluated using a lumi-aggregometer (Chrono-Log, Haverton, PA, USA) and monitored by light transmission according to Fuentes et al. (Fuentes et al., [2014a]; Mendez et al., [2020]). Briefly, washed platelets (200 × 10^9 platelets/L) were pre-incubated for 5 min at 37°C and pH 7.4 with vehicle or different doses of compounds; then platelet aggregation was induced by TRAP-6 (5 μM) or collagen (1 μg/mL) and measured for 5 min at 37°C while stirring.
(§2) The data obtained were presented as a mean ± standard deviation (SD) of three independent experiments and analyzed using Prism 8.3 software (GraphPad Inc., San Diego CA, USA). The half-maximal inhibitory concentration (IC50) was calculated from dose-response curves. Differences between samples were analyzed using Tukey or paired t-test (Vaiyapuri et al., [2013]). P-values < 0.05 were considered as significant (Fuentes et al., [2014b]; Munoz-Gutierrez et al., [2017]).

[3] = test system: collagen-stimulated platelets; test: Platelet aggregation induced by collagen (light transmission, lumi-aggregometer); assay type: cell-based, human; settings: platelet aggregation induced by collagen (1 μg/mL), washed platelets pre-incubated 5 min at 37°C, read-out: IC50 (μM) ± SD Collagen (1 μg/mL)
Protocol: as §1, §2

[4] = test system: platelets; test: Externalization of phosphatidylserine by annexin-V binding (flow cytometry); assay type: cell-based, human; settings: Figure 3A
Protocol: (§3) Externalization of phosphatidylserine, glycoprotein (GP) IIb/IIIa activation, P-selectin expression, CD63 release, and ROS levels on platelets were determined by flow cytometry (Ritchie et al., [2000]; Fuentes et al., [2014b]; Walsh et al., [2014]). All results were analyzed in the Accuri C6 flow cytometer (BD, Biosciences, USA).
(§4) Figure 3 Antiplatelet activity of compound 4. (A) Externalization of phosphatidylserine was evaluated by annexin-V binding. (B) Levels of CD63 on the surface of platelets after activation by TRAP-6 (5 μM) or collagen (1 μg/mL). (C) P-selectin expression was measured by flow cytometry in platelets stimulated with TRAP-6 (5 μM) or collagen (1 μg/mL). (D) GPIIb/IIIa activation stimulated by TRAP-6 (5 μM) or collagen (1 μg/mL) was determined by flow cytometry using the PAC-1 antibody. The graph depicts the mean ± SD of n = 3 experiments. The black graph is the control of resting platelets. ^*p < 0.05, ^**p < 0.01, and ^***p < 0.001 vs. 0 (vehicle DMSO 0.2%).

[5] = test system: CD63; test: CD63 levels on the surface of platelets (flow cytometry); assay type: cell-based, human; settings: Figure 3B
Protocol: as §3, §4

[6] = test system: P-selectin; test: P-selectin expression on platelets (flow cytometry); assay type: cell-based, human; settings: compound at 10 and 40 μM, Figure 3C
Protocol: as §3, §4

[7] = test system: GPIIb/IIIa; test: GPIIb/IIIa activation by PAC-1 antibody binding (flow cytometry); assay type: cell-based, human; settings: Figure 3D
Protocol: as §3, §4
Small structural changes led to the synthesis of non-toxic lawsone thio-derivatives with potent antiplatelet activity (Tables 1, 3). […] Thus, we decided to deeply analyze the effects of compound 4 in platelets. […] We analyzed the activated form of GPIIb/IIIa by studying the binding of FITC-labeled PAC-1 antibody by flow cytometry (Fuentes et al., [2014a]).

Row | Compound | IC50 ([2]; Homo sapiens) [µM] | IC50 ([3]; Homo sapiens) [µM] | melting point | cytotoxicity on platelets by LDH leakage (in words) [1] | Cytotoxic activity Mean (%) ± SD [1] [%] | further results
1 | O=C1C=C(O)C(=O)c2ccccc21 [Lawsone, 2-hydroxy-1,4-naphthoquinone] | – | – | – | had a cytotoxic activity | 32.80 ± 3.13 | –
2 | O=C1C(O)=C(Sc2ccccc2F)C(=O)c2ccccc21 [Compound 6, 2-((2-Fluorophenyl)thio)-3-hydroxynaphthalene-1,4-dione] | > 500 | 10.6 ± 2.25 | – | did not exert cytotoxicity | 21.77 ± 2.37 | –
3 | 2-((4-Bromophenyl)thio)-3-hydroxynaphthalene-1,4-dione [Compound 4] | – | – | – | no cytotoxicity was observed; also recorded: did not exert cytotoxicity; also recorded: non-toxic | 22.38 ± 5.78 | IC50 [2]: 15 ± 1.52 µM; IC50 [3]: 5.58 ± 1.01 µM; phosphatidylserine exposure [4]: unable to affect; expression of CD63 on platelets' membrane ([5]; after activation with TRAP-6 (5 μM)): decreased; expression of CD63 on platelets' membrane ([5]; after activation with collagen (1 μg/mL)): decreased; P-selectin expression on activated platelets ([6]; TRAP-6 (5 μM)): inhibited; P-selectin expression on activated platelets ([6]; collagen (1 μg/mL)): inhibited; PAC-1 binding to platelets (GPIIb/IIIa activation) ([7]; TRAP-6-induced): inhibited; PAC-1 binding to platelets (GPIIb/IIIa activation) ([7]; collagen-induced): inhibited
4 | 2-((2-bromophenyl)thio)-3-hydroxynaphthalene-1,4-dione [Compound 2] | – | – | – | did not exert cytotoxicity | 14.72 ± 10.92 | IC50 [2]: 112 ± 17.5 µM; IC50 [3]: 11.2 ± 3.9 µM
5 | COC(=O)c1ccccc1SC1=C(O)C(=O)c2ccccc2C1=O [Compound 5, Methyl 2-((3-hydroxy-1,4-dioxo-1,4-dihydronaphthalen-2-yl)thio)benzoate] | – | – | 235 °C (dec.) | had a cytotoxic activity | 31.12 ± 3.06 | –

More lines, main results first:

Row | IC50 ([2]; Homo sapiens) [µM] | IC50 ([3]; Homo sapiens) [µM] | melting point | Compound | cytotoxicity on platelets by LDH leakage (in words) [1] | Cytotoxic activity Mean (%) ± SD [1] [%] | further results
6 | 155 ± 55.2 | 14.6 ± 5.43 | – | O=C1C(O)=C(Sc2ccccc2)C(=O)c2ccccc21 [Compound 1, 2-Hydroxy-3-(phenylthio)naphthalene-1,4-dione] | did not exert cytotoxicity | 22.35 ± 2.94 | –
7 | 108 ± 53 | 12.1 ± 1.21 | 268 °C (dec.) | O=C1C(O)=C(Sc2ccc(F)cc2)C(=O)c2ccccc21 [Compound 8, 2-((4-Fluorophenyl)thio)-3-hydroxynaphthalene-1,4-dione] | did not exert cytotoxicity | 21.62 ± 4.17 | –
8 | 134 ± 17.3 | 11.1 ± 1.69 | 268.7 °C (dec.) | O=C1C(O)=C(Sc2cccc(F)c2)C(=O)c2ccccc21 [Compound 7, 2-((3-Fluorophenyl)thio)-3-hydroxynaphthalene-1,4-dione] | did not exert cytotoxicity | 21.50 ± 2.37 | –
